pIC50: −log10 of the molar value.
What follows are compounds tested on human monocytic cell line U937 (assay: Human U937 cellular necroptosis assay). Conditions: U-937; U937 cells stimulated with 25 ng/mL human TNFalpha and 25 μM z-VAD-FMK; 22 hr; viability by Cell Titer-Glo 2.0; read-out: hU937 IC50.
Format: cell-based
How it was run: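 U937 cells (5000/well) driven to necroptosis by 25 ng/mL human TNFalpha plus 25 μM z-VAD-FMK alongside 1:3-diluted compounds, 22 hr at 37° C, 5% CO2. Viability by CellTiter-Glo luminescence; IC50 from four-parameter logistic fit.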

Compound | pIC50
CN1C(=O)[C@@H](NC(=O)c2ncc(Cl)c(-c3ccc(F)cc3F)n2)COc2ccc(-c3cnn(C)c3)cc21 [Example 150, (S)-5-chloro-4-(2,4-difluorophenyl)-N-(5-methyl-7-(1-methyl-1H-pyrazol-4-yl)-4-oxo-2,3,4,5-tetrahydrobenzo[b]-[1,4]oxazepin-3-yl)pyrimidine-2-carboxamide] | 7.85
Cc1cnc(C(=O)N[C@H]2COc3cc(Cl)cnc3N(C)C2=O)nc1C1CC(F)(F)CCN1 (stereo partly drawn) [Example 172, N—((S)-8-chloro-5-methyl-4-oxo-2,3,4,5-tetrahydropyrido[3,2-b][1,4]oxazepin-3-yl)-4-(4,4-difluoropiperidin-2-yl)-5-methylpyrimidine-2-carboxamide] | 6.76
CN1C(=O)[C@@H](NC(=O)c2ncc(Cl)c(-c3cccc4[nH]cnc34)n2)COc2cc(Cl)cnc21 [Example 113, (S)-4-(1H-benzo[d]imidazol-4-yl)-5-chloro-N-(8-chloro-5-methyl-4-oxo-2,3,4,5-tetrahydropyrido[3,2-b]-[1,4]oxazepin-3-yl)pyrimidine-2-carboxamide] | 5.11
[2H]C([2H])([2H])N1C(=O)[C@@H](NC(=O)c2ncc(Cl)c(-c3cccc(F)c3F)n2)COc2cc(F)cnc21 [Example 168, (S)-5-chloro-4-(2,3-difluorophenyl)-N-(8-fluoro-5-(methyl-d3)-4-oxo-2,3,4,5-tetrahydropyrido[3,2-b][1,4]oxazepin-3-yl)pyrimidine-2-carboxamide] | 7.34
CN1C(=O)[C@@H](NC(=O)c2ncc(F)c(-c3ccc(F)cc3)n2)COc2cc(F)cnc21 [Example 66, (S)-5-fluoro-N-(8-fluoro-5-methyl-4-oxo-2,3,4,5-tetrahydropyrido[3,2-b]-[1,4]oxazepin-3-yl)-4-(4-fluorophenyl)pyrimidine-2-carboxamide] | 6.97
CN1C(=O)[C@@H](NC(=O)c2ncc(Cl)c(-c3ccccc3F)n2)COc2cccnc21 [Example 47, (S)-5-chloro-4-(2-fluorophenyl)-N-(5-methyl-4-oxo-2,3,4,5-tetrahydro-pyrido[3,2-b][1,4]oxazepin-3-yl)pyrimidine-2-carboxamide] | 7.53
CN1C(=O)[C@@H](NC(=O)c2ncc(Cl)c(-c3ccccc3Cl)n2)COc2cc(F)cnc21 [Example 80, (S)-5-chloro-4-(2-chlorophenyl)-N-(8-fluoro-5-methyl-4-oxo-2,3,4,5-tetrahydropyrido[3,2-b]-[1,4]oxazepin-3-yl)pyrimidine-2-carboxamide] | 7.82
CN1C(=O)[C@@H](NC(=O)c2ncc(Cl)c(-c3cccc(F)c3)n2)COc2cc(C#N)ccc21 [Example 128, (S)-5-chloro-N-(8-cyano-5-methyl-4-oxo-2,3,4,5-tetrahydrobenzo[b]-[1,4]oxazepin-3-yl)-4-(3-fluorophenyl)pyrimidine-2-carboxamide] | 7.79
Cc1cnc(C(=O)N[C@H]2COc3cc(C#N)ccc3N(C)C2=O)nc1-c1ccc(F)c(F)c1 [Example 17, (S)-N-(8-cyano-5-methyl-4-oxo-2,3,4,5-tetrahydro-benzo[b][1,4]oxazepin-3-yl)-4-(3,4-difluorophenyl)-5-methyl-pyrimidine-2-carboxamide] | 7.39
Cc1cnc(C(=O)N[C@H]2COc3cc(Cl)cnc3N(C)C2=O)nc1-c1cccc(F)c1F [Example 117, (S)-N-(8-chloro-5-methyl-4-oxo-2,3,4,5-tetrahydro-pyrido[3,2-b][1,4]oxazepin-3-yl)-4-(2,3-difluorophenyl)-5-methylpyrimidine-2-carboxamide] | 7.85
Cc1cc(-c2nc(C(=O)N[C@H]3COc4cc(Cl)cnc4N(C)C3=O)ncc2Cl)ccc1F [Example 100, (S)-5-chloro-N-(8-chloro-5-methyl-4-oxo-2,3,4,5-tetrahydropyrido[3,2-b]-[1,4]oxazepin-3-yl)-4-(4-fluoro-3-methylphenyl)pyrimidine-2-carboxamide] | 7.91
CN1C(=O)[C@@H](NC(=O)c2ccc(Cl)c(-c3ccc(F)cc3)n2)COc2cc(C#N)ccc21 [Example 37, (S)-5-chloro-N-(8-cyano-5-methyl-4-oxo-2,3,4,5-tetrahydro-benzo[b][1,4]oxazepin-3-yl)-6-(4-fluorophenyl)picolinamide] | 5.81
Cc1cnc(C(=O)N[C@H]2COc3ccc(Br)cc3N(C)C2=O)nc1-c1ccccc1 [Example 22, (S)-N-(7-bromo-5-methyl-4-oxo-2,3,4,5-tetrahydro-benzo[b][1,4]oxazepin-3-yl)-5-methyl-4-phenylpyrimidine-2-carboxamide] | 7.92
Cc1cnc(C(=O)N[C@H]2COc3ccc(CN4CCn5ncnc5C4)cc3N(C)C2=O)nc1-c1ccccc1F [Example 156, (S)-N-(7-((5,6-dihydro-[1,2,4]triazolo[1,5-a]pyrazin-7(8H)-yl)methyl)-5-methyl-4-oxo-2,3,4,5-tetrahydrobenzo[b]-[1,4]oxazepin-3-yl)-4-(2-fluorophenyl)-5-methylpyrimidine-2-carboxamide] | 7.77
CN1C(=O)[C@@H](NC(=O)c2ncc(Cl)c(-c3ccc(F)cc3)n2)COc2cc(C#N)ccc21 [Example 129, (S)-5-chloro-N-(8-cyano-5-methyl-4-oxo-2,3,4,5-tetrahydrobenzo[b]-[1,4]oxazepin-3-yl)-4-(4-fluorophenyl)pyrimidine-2-carboxamide] | 7.86
CN1C(=O)[C@@H](NC(=O)c2ncc(Cl)c(-c3ccc(F)cc3F)n2)COc2cc(Cl)cnc21 [Example 96, (S)-5-chloro-N-(8-chloro-5-methyl-4-oxo-2,3,4,5-tetrahydropyrido[3,2-b]-[1,4]oxazepin-3-yl)-4-(2,4-difluorophenyl)pyrimidine-2-carboxamide] | 8.08
CN1C(=O)[C@@H](NC(=O)c2ncc(Cl)c(-c3ccc(F)cc3F)n2)COc2cc(C#N)ccc21 [Example 138, (S)-5-chloro-N-(8-cyano-5-methyl-4-oxo-2,3,4,5-tetrahydrobenzo[b]-[1,4]oxazepin-3-yl)-4-(2,4-difluorophenyl)pyrimidine-2-carboxamide] | 7.79
Cc1cc(F)cc(F)c1-c1ccnc(C(=O)N[C@H]2COc3cc(F)cnc3N(C)C2=O)n1 [Example 64, (S)-4-(2,4-difluoro-6-methylphenyl)-N-(8-fluoro-5-methyl-4-oxo-2,3,4,5-tetrahydropyrido[3,2-b]-[1,4]oxazepin-3-yl)pyrimidine-2-carboxamide] | 6.72
CN1C(=O)[C@@H](NC(=O)c2ncc(Cl)c(-c3ccc(F)cc3F)n2)COc2cccnc21 [Example 50, (S)-5-chloro-4-(2,4-difluorophenyl)-N-(5-methyl-4-oxo-2,3,4,5-tetrahydro-pyrido[3,2-b][1,4]oxazepin-3-yl)pyrimidine-2-carboxamide] | 8.03
Cc1cccc(-c2ccnc(C(=O)N[C@H]3COc4cc(F)cnc4N(C)C3=O)n2)c1 [Example 65, (S)-N-(8-fluoro-5-methyl-4-oxo-2,3,4,5-tetrahydro-pyrido[3,2-b][1,4]oxazepin-3-yl)-4-(m-tolyl)pyrimidine-2-carboxamide] | 6.75
CN1C(=O)[C@@H](NC(=O)c2ncc(Cl)c(-c3ccc(F)cc3F)n2)COc2ccccc21 [Example 46, (S)-5-chloro-4-(2,4-difluorophenyl)-N-(5-methyl-4-oxo-2,3,4,5-tetrahydrobenzo[b]-[1,4]oxazepin-3-yl)pyrimidine-2-carboxamide] | 7.93
Cc1ccc(-c2nc(C(=O)N[C@H]3COc4cc(C#N)ccc4N(C)C3=O)ncc2Cl)cc1F [Example 132, (S)-5-chloro-N-(8-cyano-5-methyl-4-oxo-2,3,4,5-tetrahydrobenzo[b]-[1,4]oxazepin-3-yl)-4-(3-fluoro-4-methylphenyl)pyrimidine-2-carboxamide] | 7.70
Cc1cnc(C(=O)N[C@H]2COc3cc(Cl)cnc3N(C)C2=O)nc1-c1cnccn1 [Example 123, (S)-N-(8-chloro-5-methyl-4-oxo-2,3,4,5-tetrahydro-pyrido[3,2-b][1,4]oxazepin-3-yl)-5-methyl-4-(pyrazin-2-yl)-pyrimidine-2-carboxamide] | 7.31
CN1C(=O)[C@@H](NC(=O)c2ncc(Cl)c(-c3cccc(F)c3)n2)COc2cccnc21 [Example 48, (S)-5-chloro-4-(3-fluorophenyl)-N-(5-methyl-4-oxo-2,3,4,5-tetrahydro-pyrido[3,2-b][1,4]oxazepin-3-yl)pyrimidine-2-carboxamide] | 7.88
CN1C(=O)[C@@H](NC(=O)c2ncc(Cl)c(-c3ccc(F)cc3F)n2)COc2ccc(Oc3ccn(C)n3)cc21 [Example 148, (S)-5-chloro-4-(2,4-difluorophenyl)-N-(5-methyl-7-((1-methyl-1H-pyrazol-3-yl)oxy)-4-oxo-2,3,4,5-tetrahydrobenzo[b]-[1,4]oxazepin-3-yl)pyrimidine-2-carboxamide] | 8.07
Cc1cnc(C(=O)N[C@H]2COc3cc(C#N)ccc3N(C)C2=O)nc1N1CCC(F)(F)C1 [Example 23, (S)-N-(8-cyano-5-methyl-4-oxo-2,3,4,5-tetrahydro-benzo[b][1,4]oxazepin-3-yl)-4-(3,3-difluoropyrrolidin-1-yl)-5-methylpyrimidine-2-carboxamide] | 6.08
Cc1ccc(-c2nc(C(=O)N[C@H]3COc4cc(C#N)ccc4N(C)C3=O)ncc2Cl)c(F)c1 [Example 139, (S)-5-chloro-N-(8-cyano-5-methyl-4-oxo-2,3,4,5-tetrahydrobenzo[b]-[1,4]oxazepin-3-yl)-4-(2-fluoro-4-methylphenyl)pyrimidine-2-carboxamide] | 7.49
Cc1cnc(C(=O)N[C@H]2COc3cccnc3N(C)C2=O)nc1-c1ccccc1 [Example 6, (S)-5-methyl-N-(5-methyl-4-oxo-2,3,4,5-tetrahydropyrido[3,2-b][1,4]oxazepin-3-yl)-4-phenylpyrimidine-2-carboxamide] | 7.90
CN1C(=O)[C@@H](NC(=O)c2ncc(Cl)c(-c3cc(F)cc(F)c3)n2)COc2cc(F)cnc21 [Example 76, (S)-5-chloro-4-(3,5-difluorophenyl)-N-(8-fluoro-5-methyl-4-oxo-2,3,4,5-tetrahydropyrido [3,2-b]-[1,4]oxazepin-3-yl)pyrimidine-2-carboxamide] | 7.78
